Results reported in PubChem BioAssay (NCI).
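Growth conditions: 96-well plates. Treatment: test compound, 48 hours, 5 concentrations. Analysis: linear interpolation between bracketing concentrations; unreached endpoints set to highest concentration. Definition used: TGI = concentration required for complete inhibition of growth.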

Key:
Assay in all cases: NCI anticancer screen, dose series, 48 h
OVCAR-3 ovarian = system: OVCAR-3 ovarian
CAKI-1 renal = system: CAKI-1 renal
PC-3 prostate = system: PC-3 prostate
SW-620 colon = system: SW-620 colon
LOX IMVI melanoma = system: LOX IMVI melanoma
NCI-H226 lung = system: NCI-H226 lung
TK-10 renal = system: TK-10 renal
DU-145 prostate = system: DU-145 prostate
HL-60(TB) leukemia = system: HL-60(TB) leukemia
M14 melanoma = system: M14 melanoma
HCT-15 colon = system: HCT-15 colon
HCC-2998 colon = system: HCC-2998 colon
SK-MEL-2 melanoma = system: SK-MEL-2 melanoma
SNB-75 CNS = system: SNB-75 CNS
SN12C renal = system: SN12C renal
COLO 205 colon = system: COLO 205 colon
U251 CNS = system: U251 CNS
A498 renal = system: A498 renal
786-0 renal = system: 786-0 renal
NCI-H522 lung = system: NCI-H522 lung
HS 578T breast = system: HS 578T breast
ACHN renal = system: ACHN renal
IGROV1 ovarian = system: IGROV1 ovarian
OVCAR-4 ovarian = system: OVCAR-4 ovarian
RXF 393 renal = system: RXF 393 renal
T-47D breast = system: T-47D breast
OVCAR-5 ovarian = system: OVCAR-5 ovarian
KM12 colon = system: KM12 colon
SF-539 CNS = system: SF-539 CNS
SF-268 CNS = system: SF-268 CNS
UO-31 renal = system: UO-31 renal
CCRF-CEM leukemia = system: CCRF-CEM leukemia
UACC-62 melanoma = system: UACC-62 melanoma
MCF7 breast = system: MCF7 breast
SF-295 CNS = system: SF-295 CNS
MALME-3M melanoma = system: MALME-3M melanoma
NCI/ADR-RES ovarian = system: NCI/ADR-RES ovarian
A549 NSCLC = system: A549 NSCLC
SR leukemia = system: SR leukemia
MDA-MB-231 breast = system: MDA-MB-231 breast
SK-OV-3 ovarian = system: SK-OV-3 ovarian
NCI-H23 lung = system: NCI-H23 lung
SK-MEL-28 melanoma = system: SK-MEL-28 melanoma
MDA-MB-435 = system: MDA-MB-435
HOP-62 NSCLC = system: HOP-62 NSCLC
MDA-N = system: MDA-N
HCT-116 colon = system: HCT-116 colon
UACC-257 melanoma = system: UACC-257 melanoma
SNB-19 CNS = system: SNB-19 CNS
MOLT-4 leukemia = system: MOLT-4 leukemia
OVCAR-8 ovarian = system: OVCAR-8 ovarian
NCI-H460 lung = system: NCI-H460 lung
RPMI-8226 leukemia = system: RPMI-8226 leukemia
BT-549 breast = system: BT-549 breast
SK-MEL-5 melanoma = system: SK-MEL-5 melanoma
HT29 colon = system: HT29 colon
EKVX NSCLC = system: EKVX NSCLC
K-562 leukemia = system: K-562 leukemia

`COc1ccc(-c2c3ccccc3c(-c3ccc(OCCBr)cc3)c3ccccc23)cc1` showed a TGI (OVCAR-3 ovarian) greater than 100 µM, a TGI (CAKI-1 renal) greater than 100 µM and a TGI (PC-3 prostate) greater than 100 µM. The TGI (SW-620 colon) was greater than 100 µM, the TGI (LOX IMVI melanoma) was greater than 100 µM and the TGI (NCI-H226 lung) was greater than 100 µM. It also gave a TGI (TK-10 renal) greater than 100 µM, a TGI (DU-145 prostate) greater than 100 µM and a TGI (HL-60(TB) leukemia) greater than 100 µM. It also gave a TGI (M14 melanoma) greater than 100 µM, a TGI (HCT-15 colon) greater than 100 µM and a TGI (HCC-2998 colon) greater than 100 µM. It also gave a TGI (SK-MEL-2 melanoma) greater than 100 µM, a TGI (SNB-75 CNS) greater than 100 µM and a TGI (SN12C renal) greater than 100 µM. The TGI (COLO 205 colon) was greater than 100 µM, the TGI (U251 CNS) was greater than 100 µM and the TGI (A498 renal) was greater than 100 µM. The TGI (786-0 renal) was greater than 100 µM, the TGI (NCI-H522 lung) was greater than 100 µM and the TGI (HS 578T breast) was greater than 100 µM. For the same compound, the TGI (ACHN renal) was greater than 100 µM, the TGI (IGROV1 ovarian) was greater than 100 µM and the TGI (OVCAR-4 ovarian) was greater than 100 µM. For the same compound, the TGI (RXF 393 renal) was greater than 100 µM, the TGI (T-47D breast) was greater than 100 µM and the TGI (OVCAR-5 ovarian) was greater than 100 µM. The TGI (KM12 colon) was greater than 100 µM, the TGI (SF-539 CNS) was greater than 100 µM and the TGI (SF-268 CNS) was greater than 100 µM. It also gave a TGI (UO-31 renal) of 1.61 µM, a TGI (CCRF-CEM leukemia) greater than 100 µM and a TGI (UACC-62 melanoma) greater than 100 µM. The TGI (MCF7 breast) was greater than 100 µM, the TGI (SF-295 CNS) was greater than 100 µM and the TGI (MALME-3M melanoma) was greater than 100 µM. It also gave a TGI (NCI/ADR-RES ovarian) greater than 100 µM, a TGI (A549 NSCLC) greater than 100 µM and a TGI (SR leukemia) greater than 100 µM. It also gave a TGI (MDA-MB-231 breast) greater than 100 µM, a TGI (SK-OV-3 ovarian) greater than 100 µM and a TGI (NCI-H23 lung) greater than 100 µM. The TGI (SK-MEL-28 melanoma) was greater than 100 µM, the TGI (MDA-MB-435) was greater than 100 µM and the TGI (HOP-62 NSCLC) was greater than 100 µM. For the same compound, the TGI (MDA-N) was greater than 100 µM, the TGI (HCT-116 colon) was greater than 100 µM and the TGI (UACC-257 melanoma) was greater than 100 µM. For the same compound, the TGI (SNB-19 CNS) was greater than 100 µM, the TGI (MOLT-4 leukemia) was greater than 100 µM and the TGI (OVCAR-8 ovarian) was greater than 100 µM. For the same compound, the TGI (NCI-H460 lung) was greater than 100 µM, the TGI (RPMI-8226 leukemia) was greater than 100 µM and the TGI (BT-549 breast) was greater than 100 µM. It also gave a TGI (SK-MEL-5 melanoma) greater than 100 µM, a TGI (HT29 colon) greater than 100 µM and a TGI (EKVX NSCLC) greater than 100 µM.
`CCCCCC(=O)n1[nH]c(=O)n(-c2ccc(OC)cc2)c1=O` showed a TGI (OVCAR-3 ovarian) greater than 100 µM, a TGI (CAKI-1 renal) greater than 100 µM and a TGI (PC-3 prostate) greater than 100 µM. For the same compound, the TGI (SW-620 colon) was greater than 100 µM, the TGI (LOX IMVI melanoma) was greater than 100 µM and the TGI (NCI-H226 lung) was greater than 100 µM. It also gave a TGI (TK-10 renal) greater than 100 µM, a TGI (DU-145 prostate) greater than 100 µM and a TGI (HL-60(TB) leukemia) greater than 100 µM. It also gave a TGI (M14 melanoma) greater than 100 µM, a TGI (HCT-15 colon) greater than 100 µM and a TGI (HCC-2998 colon) greater than 100 µM. It also gave a TGI (SK-MEL-2 melanoma) greater than 100 µM, a TGI (SNB-75 CNS) greater than 100 µM and a TGI (SN12C renal) greater than 100 µM. For the same compound, the TGI (COLO 205 colon) was greater than 100 µM, the TGI (U251 CNS) was greater than 100 µM and the TGI (786-0 renal) was greater than 100 µM. It also gave a TGI (NCI-H522 lung) greater than 100 µM, a TGI (HS 578T breast) greater than 100 µM and a TGI (ACHN renal) greater than 100 µM. It also gave a TGI (IGROV1 ovarian) greater than 100 µM, a TGI (OVCAR-4 ovarian) greater than 100 µM and a TGI (RXF 393 renal) greater than 100 µM. The TGI (T-47D breast) was greater than 100 µM, the TGI (OVCAR-5 ovarian) was greater than 100 µM and the TGI (KM12 colon) was greater than 100 µM. It also gave a TGI (K-562 leukemia) greater than 100 µM, a TGI (SF-268 CNS) greater than 100 µM and a TGI (UO-31 renal) greater than 100 µM. It also gave a TGI (CCRF-CEM leukemia) greater than 100 µM, a TGI (UACC-62 melanoma) greater than 100 µM and a TGI (MCF7 breast) greater than 100 µM. It also gave a TGI (SF-295 CNS) greater than 100 µM, a TGI (MALME-3M melanoma) greater than 100 µM and a TGI (NCI/ADR-RES ovarian) greater than 100 µM. The TGI (A549 NSCLC) was greater than 100 µM, the TGI (SR leukemia) was greater than 100 µM and the TGI (MDA-MB-231 breast) was greater than 100 µM. It also gave a TGI (SK-OV-3 ovarian) greater than 100 µM, a TGI (NCI-H23 lung) greater than 100 µM and a TGI (SK-MEL-28 melanoma) greater than 100 µM. For the same compound, the TGI (MDA-MB-435) was greater than 100 µM, the TGI (HOP-62 NSCLC) was greater than 100 µM and the TGI (MDA-N) was greater than 100 µM. The TGI (HCT-116 colon) was greater than 100 µM, the TGI (UACC-257 melanoma) was greater than 100 µM and the TGI (SNB-19 CNS) was greater than 100 µM. The TGI (MOLT-4 leukemia) was greater than 100 µM, the TGI (OVCAR-8 ovarian) was greater than 100 µM and the TGI (NCI-H460 lung) was greater than 100 µM. For the same compound, the TGI (RPMI-8226 leukemia) was greater than 100 µM, the TGI (BT-549 breast) was greater than 100 µM and the TGI (SK-MEL-5 melanoma) was greater than 100 µM. For the same compound, the TGI (HT29 colon) was greater than 100 µM and the TGI (EKVX NSCLC) was greater than 100 µM.
